# From patent publication US9974782B2, “Phosphodiesterase inhibitors and uses thereof” (THE TRUSTEES OF COLUMBIA UNIVERSITY IN THE CITY OF NEW YORK, priority 2008, dated 2018)
# Tests used:
# [1] = system: APP/PS1 mice; assay: Contextual and cued fear conditioning; assay type: in vivo, mouse; details: for effect on contextual fear memory in words: APP/PS1 (transgenic) mice
# Method: Given that sildenafil reversed LTP deficits in 3-month-old APP/PS1, it was then tested whether the inhibitor reversed the cognitive defects in these animals. As reported above sildenafil offers the advantage of crossing the BBB and therefore it can be easily utilized in behavioural experiments. Three-month-old mice were divided into 4 groups: APP/PS1 with sildenafil, APP/PS1 with vehicle, WT with sildenafil and WT with vehicle. Sildenafil and vehicle control solutions were administered i.p. at a concentration of 3 mg/kg. This concentration was chosen based on previous studies showing that these amounts of sildenafil raise hippocampal cGMP levels and improve memory in aged rats^A6 and mice^A7 independent of vascular effects^A6. The effects of acute administration of sildenafil was first examined on fear-conditioning learning, a type of learning that is impaired in several AD mouse models^A14 and depends on hippocampus and amygdala. The hippocampus is indispensable for contextual fear conditioning^A15, a form of associative learning in which mice must associate a neutral stimulus with an aversive one. Mice were trained to associate neutral stimuli with an aversive one. They were placed in a new context (fear conditioning box), exposed to a white noise cue (CS) paired with a mild foot shock (US), and injected with sildenafil immediately after the training. Fear learning was assessed twenty-four hours later by measuring freezing behaviour—the absence of all movement except for that necessitated by breathing—in response to representation of the context or of the auditory cue within a completely different context. No difference was found in the freezing behaviour among the four groups of mice before the training phase (FIG. 2A). Twenty-four hours later, a decrease in the freezing behaviour of vehicle-treated APP/PS1 mice compared with that of vehicle-treated WT littermates in the analysis of the contextual learning was observed (FIG. 2A). […] Fear conditioning, a hippocampus-independent task A^15, was next tested and no difference in freezing among the 4 groups was found, as APP/PS1 mice are known to have a selective hippocampus-dependent impairment in associative learning^A14.
# Sildenafil was tested to determine whether a brief course of treatment can provide long term benefits. The PDE5 inhibitor was examined to see if it maintains its protective effect against synaptic dysfunction and memory loss. In these experiments, both APP/PS1 and WT mice of 3 months of age were injected intraperitoneally with 3 mg/kg/day sildenafil for 3 weeks, then the treatment was stopped for 9-12 weeks prior to testing. The mice were next subjected to training for contextual learning. […] There were no differences between the 4 groups in the cued conditioning test.
# Three-month-old APP/PS1 and WT mice were separated into 4 groups: APP/PS1 mice treated with vehicle, APP/PS1 mice treated with PDE inhibitor, WT mice treated with vehicle, and WT mice treated with PDE inhibitor. […] In the remaining experiments, sildenafil was injected via i.p. The drug was administered either acutely or for 1 course of 3 week treatment. For assessment of the short-term effects of sildenafil, the drug was given at a concentration of 3 mg/kg immediately after the training. This dose yields concentrations of ˜2.5 μM cGMP in the hippocampus^A53. For assessment of long-term effects, sildenafil was given daily by i.p. injection at a concentration of 3 mg/kg for 3 weeks and then treatment was stopped for 9-12 weeks prior to behavioral testing. Contextual and cued fear conditioning was performed for 3 days. Radial-arm water-maze (RAWM) was performed for 3 weeks. Then, the animals were sacrificed for electrophysiological recordings. To decide the time of administration of sildenafil in the acute experiments, a series of studies was performed in which the inhibitor was injected i.p. at 5 min before the electric shock or at 5 min before the first acquisition trial with the radial arm water maze. […]
# [2] = system: APP/PS1 mice; assay: Radial-arm water maze (spatial working memory); assay type: in vivo, mouse; details: for minimum time needed for a positive effect on spatial working memory: 3 mg/kg
# From the text: Next, the effect of treatment with sildenafil was examined on spatial working memory, a type of short-term memory that can be studied with the radial-arm water maze test. […] Mice were required to learn and memorize the location of a hidden platform in one of the arms of a maze with respect to spatial cues. […] However, daily injections of sildenafil for 3 weeks immediately after the 4th acquisition trial ameliorated the behavioural performance of APP/PS1 mice (FIG. 2B).
# The effects of one course of 3-week treatment with sildenafil on spatial working memory were next tested using the radial-arm water-maze task. There was a difference between the number of errors made by vehicle-treated APP/PS1 and WT mice (FIG. 3B)^A12. Administration of sildenafil for 3 weeks, 9-12 weeks prior to the testing, reduced the gap between the two groups without affecting performance of the WT animals (FIG. 3B).
# Three-month-old APP/PS1 and WT mice were separated into 4 groups: APP/PS1 mice treated with vehicle, APP/PS1 mice treated with PDE inhibitor, WT mice treated with vehicle, and WT mice treated with PDE inhibitor. […] In the remaining experiments, sildenafil was injected via i.p. The drug was administered either acutely or for 1 course of 3 week treatment. For assessment of the short-term effects of sildenafil, the drug was given at a concentration of 3 mg/kg immediately after the training. This dose yields concentrations of ˜2.5 μM cGMP in the hippocampus^A53. For assessment of long-term effects, sildenafil was given daily by i.p. injection at a concentration of 3 mg/kg for 3 weeks and then treatment was stopped for 9-12 weeks prior to behavioral testing. Contextual and cued fear conditioning was performed for 3 days. Radial-arm water-maze (RAWM) was performed for 3 weeks. Then, the animals were sacrificed for electrophysiological recordings. To decide the time of administration of sildenafil in the acute experiments, a series of studies was performed in which the inhibitor was injected i.p. at 5 min before the electric shock or at 5 min before the first acquisition trial with the radial arm water maze. […] Thus, all the behavioral experiments on the acute effects of sildenafil reported in the result section were performed with injection after the training.
# This is a type of short-term memory that can be studied with the RAWM test^12. Briefly, the RAWM consisted of a white tank (120 cm diameter) filled with water (24-25° C.) and made opaque by the addition of non-toxic white paint. Within the tank walls were positioned so as to produce six arms, radiating from a central area. Spatial cues were presented on the walls of the testing room. At the end of one of the arms was positioned a clear 10 cm submerged (1.5 cm) platform that remained in the same location for every trial in one day, but was moved about randomly from day to day. On each trial the mouse started the task from a different randomly chosen arm. […] Each trial lasted 1 min and errors were counted each time the mouse entered the wrong arm or needed more than 20 sec to reach the platform. After each error the mouse was pulled back to the start arm for that trial. After 4 consecutive acquisition trials, the mouse was placed in its home cage for 30 min, then returned to the maze and administered a 5th retention trial. Testing was considered completed as the WT mice made the same number of errors at the 4th and 5th trial. The scores for each mouse on the last three days of testing were averaged and used for statistical analysis.
# [3] = 3 month-old WT, sildenafil 3 mg/Kg or tadalafil 1 mg/Kg i.p.
# [4] = APP/PS1, 3 mg/Kg i.p. for 3 weeks at 3 months, tested 9-12 weeks later
# [5] = WT, 3 mg/Kg i.p. for 3 weeks at 3 months, tested 9-12 weeks later
# [6] = treated at 3 months, tested at 6-8 months
# [7] = 3 month-old APP/PS1, 3 mg/Kg i.p.
smiles,measurement,setting,value
"COc1ccc(CNc2c(CO)cnc3c(C4CC4)cc(C#N)cc23)cc1Cl [YF012403, 4-(3-chloro-4-methoxybenzylamino)-8-cyclopropyl-3-(hydroxymethyl)-quinoline-6-carbonitrile]",effect on contextual fear memory in words,[1],attenuated
same,effect on spatial working memory (RAWM) in words,[2]; APP/PS1 (transgenic) mice,attenuated
"CCCc1nn(C)c2c(=O)[nH]c(-c3cc(S(=O)(=O)N4CCN(C)CC4)ccc3OCC)nc12 [sildenafil, 5-[2-ethoxy-5-(4-methyl-1-piperazinylsulphonyl)phenyl]-1-methyl-3-n-propyl-1,6-dihydro-7H-pyrazolo[4,3-d]pyrimidin-7-one]",minimum time needed for a positive effect on contextual fear memory,"[1]; 3 mg/kg, treated at 3 months, tested at 6-8 months",2 weeks
same,minimum concentration needed to improve contextual fear memory,"[1]; 3-month-old APP/PS1, acute",3 mg/kg
same,contextual freezing time as % of vehicle-treated WT mice,"[1]; 3 month-old APP/PS1, sildenafil 3 mg/Kg i.p. after training, 24 hrs",about 87%
same,contextual freezing time,"[1]; 3 month-old APP/PS1, sildenafil 3 mg/Kg or tadalafil 1 mg/Kg i.p., 24 hrs after training",28.95±3.94%
same,contextual freezing as % of vehicle-treated WT mice,[1]; [3],about 89%
same,contextual freezing time,[1]; [3],30.1±3.11%
same,effect on cued conditioning in words,"[1]; 3 months old APP/PS1 and WT, 3 mg/kg",do not affect freezing during cued conditioning
same,effect on contextual fear memory in words,[1],complete
same,contextual freezing as % of vehicle-treated WT mice,[1]; [4],~97%
same,contextual freezing time,[1]; [4],30.32±1.98%
same,freezing time as % of vehicle-treated APP/PS1 mice,"[1]; APP/PS1, injected i.p. 5 min before the electric shock",~90%
same,contextual freezing as % of vehicle-treated WT mice,[1]; [5],~104%
same,contextual freezing time,[1]; [5],32.41±1.88%
same,minimum concentration needed to improve contextual fear memory,[1]; [6],3 mg/kg
same,minimum time needed for a positive effect on spatial working memory,[2]; [6],2 weeks
same,minimum time needed for a positive effect on spatial working memory,[2]; 3-month-old APP/PS1,2 weeks
same,minimum concentration needed to improve spatial working memory,"[2]; 3-month-old APP/PS1, for 3 weeks",3 mg/kg
same,"RAWM errors, recall trial R",[2]; [7],3.57±0.31 errors
same,"RAWM errors, trial A1",[2]; [7],5.87±0.22 errors
same,"RAWM errors, trial A4",[2]; [7],3.39±0.39 errors
same,"RAWM errors, recall trial R","[2]; 3 month-old WT, 3 mg/Kg i.p.",1.9±0.35 errors
same,"RAWM errors, trial A1","[2]; 3 month-old WT, 3 mg/Kg i.p.",5.5±0.23 errors
same,"RAWM errors, trial A4","[2]; 3 month-old WT, 3 mg/Kg i.p.",1.5±0.21 errors
same,"RAWM errors, recall trial R",[2]; [4],3±0.75 errors
same,"RAWM errors, trial A1",[2]; [4],6.16±0.39 errors
same,"RAWM errors, trial A2",[2]; [4],4.16±0.53 errors
same,"RAWM errors, trial A3",[2]; [4],3.5±0.41 errors
same,"RAWM errors, trial A4",[2]; [4],2.83±0.61 errors
same,RAWM errors in the retention trial,"[2]; APP/PS1, injected i.p. 5 min before the first acquisition trial",~5 errors
same,"RAWM errors, recall trial R",[2]; [5],2.33±0.36 errors
same,"RAWM errors, trial A1",[2]; [5],6±0.29 errors
same,"RAWM errors, trial A2",[2]; [5],3.22±0.56 errors
same,"RAWM errors, trial A3",[2]; [5],2.5±0.36 errors
same,"RAWM errors, trial A4",[2]; [5],1.83±0.16 errors
same,minimum concentration needed to improve spatial working memory,[2]; [6],3 mg/kg
